Among the data in patent publication US20140357655A1, “SPIROINDOLINE DERIVATIVES AS GONADOTROPIN- RELEASING HORMONE RECEPTOR ANTAGONISTS” (Bayer Intellectual Property GmbH, priority 2012, published 2014) are IC50 values, retold here.

This assay addresses T1, human GnRH receptor (Homo sapiens, UniProt P30968).
T1 sequence (P30968 1-328): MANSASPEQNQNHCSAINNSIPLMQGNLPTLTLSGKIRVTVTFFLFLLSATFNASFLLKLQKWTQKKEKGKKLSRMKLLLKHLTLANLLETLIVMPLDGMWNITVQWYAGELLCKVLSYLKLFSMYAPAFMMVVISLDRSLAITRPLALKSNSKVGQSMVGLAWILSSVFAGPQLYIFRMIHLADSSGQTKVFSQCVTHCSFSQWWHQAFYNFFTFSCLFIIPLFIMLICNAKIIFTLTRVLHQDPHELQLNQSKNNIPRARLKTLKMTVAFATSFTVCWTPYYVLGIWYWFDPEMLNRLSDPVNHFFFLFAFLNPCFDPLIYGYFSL
Nature of the assay: IP-One HTRF assay with buserelin (at EC80) stimulation. Type of assay: cell-based. The following applies: CHO cells stably expressing human GnRH receptor, read-out: Potency in IP-One HTRF assay, given as IC50. The text has this: 2.3. IP-One HTRF® Assay By using homogenous time-resolved fluorescence resonance energy transfer (HTRF), the generation of one component of the GnRH—R signalling cascade can be measured. After stimulation of CHO cells stably expressing human GnRH receptor (established by Prof. Thomas Gudermann, currently University of Marburg, Germany; supplied as frozen cell aliquots by Cell Culture Services, Hamburg, Germany) with the EC80 of the GnRH agonist buserelin, Gq protein-coupled receptor signalling cascade is activated resulting in PLC-dependent cleavage of PIP2 to Inositol-1,4,5-triphosphate (IP3) and Diacylglycerol. The second messenger IP3 is degraded intracellularly to myo-inositol. Inhibition of the final degradation step from Inositol-1-phosphate (IP1) to myo-inositol by addition of lithium chloride leads to accumulation of IP1 in the cells. In cell lysates, IP1 can be detected via an antibody-based HTRF detection technology, where IP1 can displace the FRET acceptor IP1-d2 from binding by Terbium-labelled anti-IP1 antibody as donor resulting in a signal decrease. Compounds were tested for their capability of inhibiting GnRH—R activation by buserelin. For all IP-One HTRF® assays reagents of Cisbio Bioassays (IP-One Tb Jumbo kit, #62IPAPEJ; Cisbio Bioassays, Bagnols sur Cèze Cedex, France) were used.
For the assay, frozen cell aliquots were thawed and a cell suspension (3.33×10^6 cells/mL) containing IP1-d2 (dilution 1:40) was prepared and incubated at 37° C. After 1 h 3 μl of the cell suspension were added to 50 nl of a 100-fold concentrated solution of the test compound in DMSO pre-dispensed in a well of a white low-volume 384-well microtiter plate (Greiner Bio-One, Frickenhausen, Germany). […] Plates were incubated for 1 h at 37° C. and 5% carbon dioxide before the cells were lysed by adding 3 μl Terbium-labelled anti-IP1 antibody (1:40) diluted in Conjugate & Lysis buffer as supplied with the kit. After an incubation for 1 h at 22° C. to enable complete cell lysis and antibody binding to free IP1 or IP1-d2, plates were measured in an HTRF reader, e.g. a RUBYstar, PHERAstar (both BMG Labtechnologies, Offenburg, Germany) or a Viewlux (PerkinElmer LAS, Rodgau-Jügesheim, Germany).
From the fluorescence emissions at 665 nm (FRET) and at 620 nm (background signal of Terbium-antibody), the ratio (emission at 665 nm divided by emission at 620 nm) was calculated and the data were normalized (reaction without test compound=0% inhibition; all other assay components except agonist=100% inhibition). On the same microtiter plate, compounds were tested at 10 different concentrations in the range of 20 μM to 1 nM (20 μM, 6.7 μM, 2.2 μM, 0.74 μM, 0.25 μM, 82 nM, 27 nM, 9.2 nM, 3.1 nM and 1 nM; dilution series prepared before the assay at the level of the 100-fold conc. stock solutions by serial 1:3 dilutions in 100% DMSO) in duplicate values for each concentration. By using an in-house software, the IC50 values were calculated by a 4 parameter fit.
For orientation: Time-resolved FRET reads energy transfer from a long-lived donor to a nearby acceptor.

In the case of `O=C(NCC1CC1)c1ccc2c(c1)C1(CCS(=O)(=O)CC1)C(C1CC1)N2S(=O)(=O)c1ccc(F)cc1` (single isomer, unassigned) [Example 35.1, 2-cyclopropyl-N-(cyclopropylmethyl)-1-[(4-fluorophenyl)sulfonyl]-1,2,2′,3′,5′,6′-hexahydrospiro[indole-3,4′-thiopyran]-5-carboxamide 1′,1′-dioxide], the IC50 is 394 nM.

In the case of `O=C(NCC1CC1)c1ccc2c(c1)C1(CCS(=O)(=O)CC1)C(C1CC1)N2S(=O)(=O)c1ccc(F)cc1` (single isomer, unassigned) [Example 35.2, 2-cyclopropyl-N-(cyclopropylmethyl)-1-[(4-fluorophenyl)sulfonyl]-1,2,2′,3′,5′,6′-hexahydrospiro[indole-3,4′-thiopyran]-5-carboxamide 1′,1′-dioxide], the half-maximal inhibitory concentration (IC50) was > 20000 nM.

Consider `O=C(NCC1CCCCC1)c1ccc2c(c1)C1(CCS(=O)(=O)CC1)C(C1CC1)N2S(=O)(=O)c1ccc(F)cc1` (single isomer, unassigned) [Example 36.1, N-(cyclohexylmethyl)-2-cyclopropyl-1-[(4-fluorophenyl)sulfonyl]-1,2,2′,3′,5′,6′-hexahydrospiro[indole-3,4′-thiopyran]-5-carboxamide 1′,1′-dioxide], for which the IC50 came to 107 nM.

Turning to `O=C(NCC1CCCCC1)c1ccc2c(c1)C1(CCS(=O)(=O)CC1)C(C1CC1)N2S(=O)(=O)c1ccc(F)cc1` (single isomer, unassigned) [Example 36.2, N-(cyclohexylmethyl)-2-cyclopropyl-1-[(4-fluorophenyl)sulfonyl]-1,2,2′,3′,5′,6′-hexahydrospiro[indole-3,4′-thiopyran]-5-carboxamide 1′,1′-dioxide], the IC50 came to 3890 nM.

Turning to `CN(C)S(=O)(=O)c1cccc(NC(=O)c2ccc3c(c2)C2(CCS(=O)(=O)CC2)C(C2CC2)N3S(=O)(=O)c2ccc(F)cc2)c1` (single isomer, unassigned) [Example 37.1, 2-cyclopropyl-N-[3-(N,N-dimethylsulfamoyl)phenyl]-1-[(4-fluorophenyl)sulfonyl]-1,2,2′,3′,5′,6′-hexahydrospiro[indole-3,4′-thiopyran]-5-carboxamide 1′,1′-dioxide], the IC50 came to 2130 nM.

For the molecule `CN(C)S(=O)(=O)c1cccc(NC(=O)c2ccc3c(c2)C2(CCS(=O)(=O)CC2)C(C2CC2)N3S(=O)(=O)c2ccc(F)cc2)c1` (single isomer, unassigned) [Example 37.2, 2-cyclopropyl-N-[3-(N,N-dimethylsulfamoyl)phenyl]-1-[(4-fluorophenyl)sulfonyl]-1,2,2′,3′,5′,6′-hexahydrospiro[indole-3,4′-thiopyran]-5-carboxamide 1′,1′-dioxide], the IC50 was 44 nM.

With `O=C(NCC1CCCC1)c1ccc2c(c1)C1(CCS(=O)(=O)CC1)C(C1CC1)N2S(=O)(=O)c1ccc(F)cc1` (single isomer, unassigned) [Example 38.1, N-(cyclopentylmethyl)-2-cyclopropyl-1-[(4-fluorophenyl)sulfonyl]-1,2,2′,3′,5′,6′-hexahydrospiro[indole-3,4′-thiopyran]-5-carboxamide 1′,1′-dioxide], the IC50 is 88 nM.

Consider `O=C(NCC1CCCC1)c1ccc2c(c1)C1(CCS(=O)(=O)CC1)C(C1CC1)N2S(=O)(=O)c1ccc(F)cc1` (single isomer, unassigned) [Example 38.2, N-(cyclopentylmethyl)-2-cyclopropyl-1-[(4-fluorophenyl)sulfonyl]-1,2,2′,3′,5′,6′-hexahydrospiro[indole-3,4′-thiopyran]-5-carboxamide 1′,1′-dioxide], for which the IC50 was 6860 nM.

On to `COc1cccc(S(=O)(=O)N2c3ccc(C(=O)NCc4ncccc4C(F)(F)F)cc3C3(CCS(=O)(=O)CC3)C2C2CC2)c1` (single isomer, unassigned) [Example 39.1, 2-cyclopropyl-1-[(3-methoxyphenyl)sulfonyl]-N-{[3-(trifluoromethyl)pyridin-2-yl]methyl}-1,2,2′,3′,5′,6′-hexahydrospiro[indole-3,4′-thiopyran]-5-carboxamide 1′,1′-dioxide], for which the IC50 came out at 40 nM.

Usually IC50 stands for the concentration that gives 50% inhibition.
